Assays:
sciatic nerve = assay: local anesthesia, sciatic block; type: in vivo, mice; conditions: Pos. = blockade took place and leg and foot returned to normal after a time
Description: An effective local anesthetic causes a blockade of the nerves of the lower leg and foot causing the animal, when permitted to walk, to do so flatfooted, rather than its normal habit, up on its toes. Alternatively an effective local anesthetic, by the sciatic block method, can cause the leg to be dragged by the animal when walking so long as effective sciatic block persists. Toxic agents may effect the same apparent results, but the blockade effected by toxic agents is irreversible. However, in contrast to toxic agents, an effective local anesthetic permits recovery of the use of the leg and foot after a period of time.
The mice used in the sciatic block test were placed in a holder with their hind limbs extended. A quantity of the test compound (e.g. 0.05 ml) was injected into the area surrounding the sciatic nerve at the juncture of the two major leg muscles. Effective local anesthetic activity is indicated in Table IV ("Pos." --meaning that the blockade did take place and that the leg and foot returned to normal after a time.)

NARCOTIC ANTAGONISM = assay: narcotic antagonism (Table IV); type: in vivo; conditions: I.P.
Description: The compounds of this invention were tested for their ability to antagonize narcotic analgesics by two different tests. […] Another test used for narcotic antagonist activity was published by Harris & Pearson. This test is modification of the D'Amour & Smith method.
In the original method the time required for rats to flick their tails following application of a heat stimulus is taken as a measure of analgesic potency.

MOUSE TAIL STIMULATION = assay: mouse tail stimulation analgesia; conditions: Mus musculus, sc, read-out: MOUSE TAIL STIMULATION ED50

With `Cl.NC(=O)c1ccccc1NCCN1CCN(CCc2ccccc2)CC1` [XVII, 2-[2-(4-phenethyl-1-piperazinyl)ethylamino]benzamide hydrochloride] the “LOCAL ANESTHESIA SCIATIC BLOCK” value (sciatic nerve) was “Positive”, the “NARCOTIC ANTAGONISM” value (NARCOTIC ANTAGONISM) was “Negative” and the LD50 (in vivo; ip) was 70 mg/kg. It also gave an NOAEL (in vivo; ip) of 10 mg/kg.

In the case of `CCOc1ccc(NCCN2CCN(c3ccccc3)CC2)c(C(N)=O)c1` [XXIV, 5-Ethoxy-2-(2-[4-phenyl-1-piperazinyl]ethylamino)benzamide], the “NARCOTIC ANTAGONISM” value (NARCOTIC ANTAGONISM) is reported as “Negative”, the LD50 (in vivo; ip) is reported as 300 mg/kg and the NOAEL (in vivo; ip) is reported as 30 mg/kg.

`CCC(=O)OC1(c2ccccc2)CCN(CCN(Cc2ccccc2)c2ccccc2C(=O)NC)CC1` [XXVIII, 2-[Benzyl-(2-[4-propionoxy-4-phenylpiperidyl]ethyl)amino]-N-methyl-benzamide] gave an LD50 (in vivo; po) of 250 mg/kg.

For `CC(C)=CCN1CCC2(C)c3cc(O)ccc3CC1C2C` (stereo not shown) [Pentazocine, reference compound], the “LOCAL ANESTHESIA SCIATIC BLOCK” value (sciatic nerve) was “Positive”, the “NARCOTIC ANTAGONISM” value (NARCOTIC ANTAGONISM) was “Positive” and the LD50 (in vivo; ip) was 140 mg/kg. For the same compound, the NOAEL (in vivo; ip) was 30 mg/kg.

For `CS(=O)(=O)O.O=C1NC(c2ccccc2)N(CCN2CCC(O)(c3ccccc3)CC2)c2ccccc21` (stereo not shown) [Example XXVI, 1-[2-(4-Hydroxy-4-phenylpiperidino)ethyl]-2-phenyl-1,2,3,4-tetrahydro-4-quinazolinone Methanesulfonate], the “LOCAL ANESTHESIA SCIATIC BLOCK” value (sciatic nerve) was “Positive”, the “NARCOTIC ANTAGONISM” value (NARCOTIC ANTAGONISM) was “Negative” and the LD50 (in vivo; ip) was 200 mg/kg. It also gave an NOAEL (in vivo; ip) of 3 mg/kg.

With `CCC(=O)OC1(c2ccccc2)CCN(CCNc2ccccc2C(N)=O)CC1` [Example XXVII, 2-[2-(4-propionoxy-4-phenylpiperidyl)ethylamino]benzamide] the ED50 (MOUSE TAIL STIMULATION) was 0.03 mg/kg, the LD50 (in vivo; ip) was 60 mg/kg and the NOAEL (in vivo; ip) was 0.1 mg/kg.

With `CCOC(=O)C1(c2ccccc2)CCN(C)CC1` [Merperidine, reference compound] the “LOCAL ANESTHESIA SCIATIC BLOCK” value (sciatic nerve) was “Positive”, the “NARCOTIC ANTAGONISM” value (NARCOTIC ANTAGONISM) was “Negative” and the ED50 (MOUSE TAIL STIMULATION) was 1.8 mg/kg. For the same compound, the LD50 (in vivo; ip) was 130 mg/kg and the NOAEL (in vivo; ip) was 30 mg/kg.

`CCC(=O)OC1(c2ccccc2)CCN(CCNc2ccccc2C(=O)NC)CC1` [XXIX, 2-[2-(4-Propionoxy-4-phenylpiperidyl)ethylamino]-N-methyl-benzamide] showed an LD50 (in vivo; po) of 16 mg/kg.

For `Cl.Cl.Cl.NC(=O)c1ccccc1NCCN1CCN(Cc2ccccc2)CC1` [Example XX, 2-(2-[4-Benzyl-1-piperazinyl]ethylamino)benzamide trihydrochloride], the “NARCOTIC ANTAGONISM” value (NARCOTIC ANTAGONISM) was “Positive”, the LD50 (in vivo; ip) was 100 mg/kg and the NOAEL (in vivo; ip) was 10 mg/kg.

With `CC(CNc1ccccc1C(N)=O)N1CCN(c2ccccc2)CC1.Cl` (stereo not shown) [XIV, 2-[2-(4-phenyl-1-piperazinyl)propylamino]benzamide hydrochloride] the “LOCAL ANESTHESIA SCIATIC BLOCK” value (sciatic nerve) was “Positive”, the “NARCOTIC ANTAGONISM” value (NARCOTIC ANTAGONISM) was “Positive” and the LD50 (in vivo; ip) was 300 mg/kg. The NOAEL (in vivo; ip) was 10 mg/kg.

For `COc1ccc(N2CCN(CCNc3ccccc3C(N)=O)CC2)cc1` [VII, 2-[2-(1-[p-Methoxyphenyl]-4-piperazinyl)ethylamino] benzamide], the “LOCAL ANESTHESIA SCIATIC BLOCK” value (sciatic nerve) was “Positive”, the “NARCOTIC ANTAGONISM” value (NARCOTIC ANTAGONISM) was “Positive” and the LD50 (in vivo; ip) was 300 mg/kg. For the same compound, the NOAEL (in vivo; ip) was 3 mg/kg.

For `O=C(Nc1ccccc1)c1ccccc1NCCN1CCN(c2ccccc2)CC1` [XXII, 2-[2-(1-Phenyl-4-piperazinyl)ethylamino]-N-phenylbenzamide], the “LOCAL ANESTHESIA SCIATIC BLOCK” value (sciatic nerve) was “Negative”, the “NARCOTIC ANTAGONISM” value (NARCOTIC ANTAGONISM) was “Positive” and the LD50 (in vivo; ip) was 300 mg/kg. For the same compound, the NOAEL (in vivo; ip) was 0.3 mg/kg.

In the case of `COc1ccc(NCCN2CCN(c3ccccc3)CC2)c(C(N)=O)c1` [XVIII, 5-Methoxy-2-(2[4-phenyl-1-piperazinyl]ethylamino)benzamide], the “NARCOTIC ANTAGONISM” value (NARCOTIC ANTAGONISM) is reported as “Positive”, the LD50 (in vivo; ip) is reported as 300 mg/kg and the NOAEL (in vivo; ip) is reported as 1 mg/kg.

With `COC(=O)c1ccccc1NCCN1CCN(c2ccccc2)CC1` [XII, Methyl 2-[2-(1-phenyl-4-piperazinyl)ethylamino]benzoate] the “LOCAL ANESTHESIA SCIATIC BLOCK” value (sciatic nerve) was “Positive”, the “NARCOTIC ANTAGONISM” value (NARCOTIC ANTAGONISM) was “Negative” and the LD50 (in vivo; ip) was 300 mg/kg. For the same compound, the NOAEL (in vivo; ip) was 300 mg/kg.

With `NC(=O)c1cc([N+](=O)[O-])ccc1NCCN1CCN(c2ccccc2)CC1` [XIX, 5-Nitro-2-(2-[4-phenyl-1-piperazinyl]ethylamino)benzamide] the “NARCOTIC ANTAGONISM” value (NARCOTIC ANTAGONISM) was “Negative” and the LD50 (in vivo; po) was 300 mg/kg.

For `NC(=O)c1ccccc1NCCN1CCCCC1` [XXXI, 2-[N-β-(1-Piperidinoethyl)amino]benzamide], the “NARCOTIC ANTAGONISM” value (NARCOTIC ANTAGONISM) was “Positive”, the LD50 (in vivo; ip) was 40 mg/kg and the NOAEL (in vivo; ip) was 10 mg/kg.

In the case of `CC(CN1CCN(c2ccccc2)CC1)Nc1ccccc1C(N)=O` (stereo not shown) [XXXII, 2-[1-methyl-2-(4-phenyl-1-piperazinyl)ethylamino]benzamide], the “NARCOTIC ANTAGONISM” value (NARCOTIC ANTAGONISM) is reported as “Negative”, the LD50 (in vivo; ip) is reported as 300 mg/kg and the NOAEL (in vivo; ip) is reported as 3 mg/kg.

For `CNC(=O)c1ccccc1NCCN1CCN(c2ccccc2)CC1` [XV, 2-(2-[4-phenyl-1-piperazinyl]ethylamino)-N-methylbenzamide], the “LOCAL ANESTHESIA SCIATIC BLOCK” value (sciatic nerve) was “Positive”, the “NARCOTIC ANTAGONISM” value (NARCOTIC ANTAGONISM) was “Positive” and the LD50 (in vivo; ip) was 200 mg/kg. It also gave an NOAEL (in vivo; ip) of 3 mg/kg.

In the case of `NC(=O)c1ccccc1N(CCN1CCC(O)(c2ccccc2)CC1)Cc1ccccc1` [Example XXVII (Step 4 Title Compound), 2-[Benzyl-(2-[4-hydroxy-4-phenylpiperidyl]ethyl)amino]benzamide], the LD50 (in vivo; ip) is reported as 60 mg/kg and the NOAEL (in vivo; ip) is reported as 10 mg/kg.

With `Cl.O=C(c1ccccc1NCCN1CCN(c2ccccc2)CC1)N1CCOCC1` [XVI, N-(2-[2-(1-phenyl-4-piperazinyl)ethylamino]benzoyl) morpholine hydrochloride] the “NARCOTIC ANTAGONISM” value (NARCOTIC ANTAGONISM) was “Positive”, the ED50 (MOUSE TAIL STIMULATION) was 30 mg/kg and the LD50 (in vivo; ip) was 250 mg/kg. The NOAEL (in vivo; ip) was 10 mg/kg.

For `Cl.NC(=O)c1cc(N)ccc1NCCN1CCN(c2ccccc2)CC1` [XXI, 5-Amino-2-(2-[4-phenyl-1-piperazinyl]-ethylamino)benzamide hydrochloride], the “LOCAL ANESTHESIA SCIATIC BLOCK” value (sciatic nerve) was “Positive”, the “NARCOTIC ANTAGONISM” value (NARCOTIC ANTAGONISM) was “Positive” and the LD50 (in vivo; ip) was 200 mg/kg. The NOAEL (in vivo; ip) was 10 mg/kg.

In the case of `CCC(=O)OC1(c2ccccc2)CCN(CCN(Cc2ccccc2)c2ccccc2C(N)=O)CC1` [Example XXVII (Step 5 Title Compound)], the “NARCOTIC ANTAGONISM” value (NARCOTIC ANTAGONISM) is reported as “Negative”, the LD50 (in vivo; ip) is reported as 100 mg/kg and the NOAEL (in vivo; ip) is reported as 3 mg/kg.

With `NC(=O)c1ccccc1NCCN1CCC(c2ccccc2)CC1` [XXX, 2-[2-(4-phenyl-1-piperidyl)ethylamino]benzamide] the “LOCAL ANESTHESIA SCIATIC BLOCK” value (sciatic nerve) was “Positive”, the “NARCOTIC ANTAGONISM” value (NARCOTIC ANTAGONISM) was “Positive” and the LD50 (in vivo; ip) was 200 mg/kg. The NOAEL (in vivo; ip) was 10 mg/kg.

Source: US4060526A, “1-Heterocyclic alkyl-1,2,3,4-tetrahydroquinazolinones and analgesic intermediates thereof” (priority 1976, dated 1977)
